Values after ≈ are worked out from the molar mass of the structure shown. A value given as a limit tells only on which side of the number the result lay.

The assay concerns KB. The assay can be described thus: Cytotoxicity against human KB cells after 72 hrs by neutral red assay. The class given is functional, cell-based.
As to `COc1ccc(-c2cc(=O)c3c(O[C@@H]4O[C@H](CO[C@@H]5OC[C@@H](O)[C@H](O)[C@H]5O)[C@@H](O)[C@H](O)[C@H]4O)cc(OC)cc3o2)cc1`, the IC50 is above 100 µg/mL. The compound `COc1cc(O[C@@H]2O[C@H](CO[C@@H]3OC[C@@H](O)[C@H](O)[C@H]3O)[C@@H](O)[C@H](O)[C@H]2O)c2c(=O)cc(-c3ccc(OC)c(OC)c3)oc2c1` [LETHEDIOSIDE A] displayed an IC50 above 100 µg/mL. The compound `COc1cc(O[C@@H]2O[C@H](CO[C@@H]3OC[C@@H](O)[C@H](O)[C@H]3O)[C@@H](O)[C@H](O)[C@H]2O)c2c(=O)cc(-c3cc(OC)c(OC)c(OC)c3)oc2c1` [LETHEDIOSIDE B] yielded an IC50 of 32 µg/mL (≈ 49 µM). The result for `COc1cc(O[C@@H]2O[C@H](CO)[C@@H](O)[C@H](O)[C@H]2O)c2c(=O)cc(-c3ccc(OC)c(OC)c3)oc2c1` [LETHEDOSIDE A] reads above 100 µg/mL. Compound `COc1cc(O[C@@H]2O[C@H](CO)[C@@H](O)[C@H](O)[C@H]2O)c2c(=O)cc(-c3cc(OC)c(OC)c(OC)c3)oc2c1` [LETHEDOSIDE B] came in with an IC50 of 37 µg/mL (≈ 71.1 µM).

Compound `COc1cc(O[C@@H]2O[C@H](CO)[C@@H](O)[C@H](O)[C@H]2O)c2c(=O)cc(-c3cc(O)c(OC)c(OC)c3)oc2c1` [LETHEDOSIDE C] had an IC50 of 43 µg/mL (≈ 84.9 µM). The result for `COc1cc(O)c2c(=O)cc(-c3ccc(O)c(OC)c3)oc2c1` [VELUTIN] reads 1.5 µg/mL (≈ 4.77 µM).

As a reminder, the IC50 is the concentration at which inhibition is half-maximal. Higher therefore signals lower potency.

These data come from ChEMBL document CHEMBL1158011, “Five new flavone 5-O-glycosides from Lethedon tannaensis: lethedosides and lethediosides” (J Nat Prod, 1999).
